In ChEMBL document CHEMBL1125090, “Expedient synthesis and biochemical properties of an [125I]-labeled analogue of glyburide, a radioligand for ATP-inhibited potassium channels” (J Med Chem, 1990) one finds Ki data, which are given here for three molecules.

As usually defined, the Ki is the equilibrium dissociation constant of an inhibitor or competing ligand from its target. High values mean lower affinity, low ones higher affinity.

This experiment can be described thus: Inhibition of [125I]-I binding to ATP-inhibited Potassium channel receptor of Rat brain homogenate.
For the molecule `COc1ccc(I)cc1C(=O)NCCc1ccc(S(=O)(=O)NC(=O)NC2CCCCC2)cc1`, affinity was put at a Ki of 2.6 nM. Under `Cc1cnc(C(=O)NCCc2ccc(S(=O)(=O)NC(=O)NC3CCCCC3)cc2)cn1` [GLIPIZIDE] stands 8.2 nM; under `COc1ccc(Cl)cc1C(=O)NCCc1ccc(S(=O)(=O)NC(=O)NC2CCCCC2)cc1` [GLYBURIDE], 0.608 nM.
